Experimental data taken from ChEMBL document CHEMBL5550153, “Semisynthesis and biological evaluation of novel honokiol thioethers against colon cancer cells HCT116 via inhibiting the transcription and expression of YAP protein” (Bioorg Med Chem, 2024).
Activity calls are given as the source filed them. No cut-off for these calls is given here.

Assays:
[1] = system: HCT-116; test: Antiproliferative activity against human HCT-116 cells assessed as inhibition of cell growth incubated for 48 hrs by MTT assay; type: functional, cell-based; conditions: HCT-116, 48 h
[2] = system: KYSE-450; test: Antiproliferative activity against human KYSE-450 cells assessed as inhibition of cell growth incubated for 48 hrs by MTT assay; type: functional, cell-based; conditions: KYSE-450, 48 h
[3] = system: MGC-803; test: Antiproliferative activity against human MGC-803 cells assessed as inhibition of cell growth incubated for 48 hrs by MTT assay; type: functional, cell-based; conditions: MGC-803, 48 h
[4] = system: HCT-116; test: Activation of Hippo signaling pathway in human HCT-116 cells assessed as increase in YAP phosphorylation level at 2 to 6 micromol/L incubated for 48 hrs by Western blotting analysis; type: cell-based; conditions: dose 2-6 µmol/L
[5] = system: HCT-116; test: Downregulation of YAP gene transcription in human HCT-116 cells at 6 micromol/L measured after 48 hrs by RT-qPCR analysis; type: functional, cell-based; conditions: dose 6.0 µmol/L
[6] = system: HCT-116; test: Induction of cell cycle arrest in human HCT-116 cells assessed as downregulation of CDK4 level at 2 to 6 micromol/L measured after 48 hrs by Western blot analysis; type: functional, cell-based; conditions: dose 2-6 µmol/L
[7] = system: HCT-116; test: Antiproliferative activity against human HCT-116 cells assessed as inhibition of cell growth at 2 to 6 micromol/L by MTT assay; type: functional, cell-based; conditions: dose 2-6 µmol/L, time 0-48 hrs, TDE = time-dependent effect
[8] = system: HCT-116; test: Induction of cell cycle arrest in human HCT-116 cells assessed as increase in cells at G1 phase at 2 to 6 micromol/L measured after 48 hrs by PI staining based flow cytometry analysis relative to control; type: functional; conditions: dose 2-6 µmol/L, at 2 to 6 µM
[9] = system: HCT-116; test: Inhibition of colony formation in human HCT-116 cells at 2 to 8 micromol/L measured daily for 7 days by crystal violet staining based analysis; type: functional, cell-based; conditions: dose 2-8 µmol/L, time 7.0 day
[10] = system: HCT-116; test: Downregulation of YAP protein expression in human HCT-116 cells at 2 to 6 micromol/L measured after 48 hrs by Western blot analysis; type: functional, cell-based; conditions: dose 2-6 µmol/L
[11] = system: HCT-116; test: Downregulation of TAZ protein expression in human HCT-116 cells at 2 to 6 micromol/L measured after 48 hrs by Western blot analysis; type: functional, cell-based; conditions: dose 2-6 µmol/L
[12] = system: HCT-116; test: Antiproliferative activity against human HCT-116 cells assessed as inhibition of cell growth measured upto 48 hrs by MTT assay; type: functional, cell-based; conditions: dose 2-6 µmol/L
[13] = system: HCT-116; test: Induction of cell death in human HCT-116 cells at 2 to 6 micromol/L measured after 48 hrs by Annexin V-FITC/PI staining based flow cytometry analysis; type: functional; conditions: dose 2-6 µmol/L

Row | SMILES | IC50 [1] | IC50 [2] | IC50 [3] | also measured
1 | C=CCc1ccc(O)c(-c2ccc(O)c(CC=C)c2)c1 [HONOKIOL] | 17.2 µM | 32.4 µM | 11.8 µM | –
2 | C=CCc1ccc(O)c(-c2ccc3c(c2)C[C@@H](CSc2nnc(-c4ccccc4Br)o2)O3)c1 | > 50 µM | > 50 µM | > 50 µM | –
3 | C=CCc1ccc(O)c(-c2ccc3c(c2)C[C@@H](CSc2nnc(-c4cccc(C)c4)o2)O3)c1 | > 50 µM | > 50 µM | 20.5 µM | –
4 | C=CCc1ccc(O)c(-c2ccc3c(c2)C[C@@H](CSc2nnc(-c4cccc(OC)c4)o2)O3)c1 | > 50 µM | > 50 µM | > 50 µM | –
5 | C=CCc1ccc(O)c(-c2ccc3c(c2)C[C@@H](CSc2nnc(-c4ccc(C#N)cc4)o2)O3)c1 | > 50 µM | > 50 µM | > 50 µM | –
6 | C=CCc1ccc(O)c(-c2ccc3c(c2)C[C@@H](CSc2nnc(-c4cccnc4)o2)O3)c1 | 12.3 µM | > 50 µM | 8.63 µM | –
7 | C=CCc1ccc(O)c(-c2ccc3c(c2)C[C@@H](CSc2nnc(-c4ccc([N+](=O)[O-])cc4)o2)O3)c1 | 6.1 µM | > 50 µM | > 50 µM | Activity [4]: inactive; Activity [5]: Active; Activity [6]: Active; Activity [7]: Tde; Activity [8]: >20%; inhibition [9]: Active; Activity [10]: Active; Activity [11]: Active; Activity [12]: Dose-Dependent Effect; Activity [13]: Active
8 | C=CCc1ccc(O)c(-c2ccc3c(c2)C[C@@H](CSc2nnc(-c4ccc(Cl)cc4Cl)o2)O3)c1 | > 50 µM | > 50 µM | 21.5 µM | –
9 | C=CCc1ccc(O)c(-c2ccc3c(c2)C[C@@H](CSc2nnc(-c4ccccc4OC)o2)O3)c1 | > 50 µM | > 50 µM | > 50 µM | –
10 | C=CCc1ccc(O)c(-c2ccc3c(c2)C[C@@H](CSc2nnc(-c4ccc(C)cc4)o2)O3)c1 | 59.6 µM | > 50 µM | 29.5 µM | –
11 | C=CCc1ccc(O)c(-c2ccc3c(c2)C[C@@H](CSc2nnc(-c4ccccc4Cl)o2)O3)c1 | > 50 µM | > 50 µM | > 50 µM | –
12 | C=CCc1ccc(O)c(-c2ccc3c(c2)C[C@@H](CSc2nnc(-c4ccncc4)o2)O3)c1 | > 50 µM | > 50 µM | 40.6 µM | –
13 | O=c1[nH]cc(F)c(=O)[nH]1 [FLUOROURACIL] | 9.63 µM | 32.6 µM | 3.88 µM | –
14 | C=CCc1ccc(O)c(-c2ccc3c(c2)C[C@@H](CSc2nnc(-c4ccc(F)cc4Cl)o2)O3)c1 | > 50 µM | > 50 µM | 20.4 µM | –
15 | C=CCc1ccc(O)c(-c2ccc3c(c2)C[C@@H](CSc2nnc(-c4ccc(F)cc4)o2)O3)c1 | 27.4 µM | > 50 µM | 25.1 µM | –
16 | C=CCc1ccc(O)c(-c2ccc3c(c2)C[C@@H](CSc2nnc(-c4cccc(F)c4)o2)O3)c1 | 29.4 µM | > 50 µM | 23.8 µM | –
17 | C=CCc1ccc(O)c(-c2ccc3c(c2)C[C@@H](CSc2nnc(-c4cccc(Cl)c4)o2)O3)c1 | 43.4 µM | > 50 µM | 24.6 µM | –
18 | C=CCc1ccc(O)c(-c2ccc3c(c2)C[C@@H](CSc2nnc(-c4cccc(Br)c4)o2)O3)c1 | 57.6 µM | > 50 µM | 20.4 µM | –
19 | C=CCc1ccc(O)c(-c2ccc3c(c2)C[C@@H](CSc2nnc(-c4ccccc4C)o2)O3)c1 | 47.7 µM | > 50 µM | 25.7 µM | –
20 | C=CCc1ccc(O)c(-c2ccc3c(c2)C[C@@H](CSc2nnc(-c4ccc(OC)cc4)o2)O3)c1 | > 50 µM | > 50 µM | 39.7 µM | –
21 | C=CCc1ccc(O)c(-c2ccc3c(c2)C[C@@H](CSc2nnc(-c4ccc(Cl)cc4)o2)O3)c1 | 37.9 µM | > 50 µM | 27 µM | –
22 | C=CCc1ccc(O)c(-c2ccc3c(c2)C[C@@H](CSc2nnc(-c4ccc(Br)cc4)o2)O3)c1 | 52.2 µM | > 50 µM | 44.6 µM | –
23 | C=CCc1ccc(O)c(-c2ccc3c(c2)C[C@@H](CSc2nnc(-c4ccccc4)o2)O3)c1 | 46.7 µM | > 50 µM | 27.5 µM | –
24 | C=CCc1ccc(O)c(-c2ccc3c(c2)C[C@@H](CSc2nnc(-c4ccccc4F)o2)O3)c1 | 20.1 µM | 38.7 µM | 16.2 µM | –
